US12208075B2, “Antimicrobial compositions containing free fatty acids” (priority 2009, dated 2025)

How the values were obtained:
[1] = system: adhesion of Candida albicans to human Buccal Epithelial Cells; test: microbe, parasite or virus in culture; assay type: cell-based; conditions: for incremental increase in adhesion inhibitory effect achieved by de-lipidisation (in brackets): versus Table 4
[2] = system: Staphylococcus aureus RN 4220; test: Comparative microbicidal suspension test, free vs emulsified fatty acids; assay type: cell-based
fresh sheep blood [3] = test: Blood clotting time, visual tube comparison; conditions: between 0.5% and […] caprylic acid emulsified in 0.5% DLL
Experimental: Comparative measurement of accelerated clotting times is achieved using appropriate volumes of fresh blood mixed with a volume of test material, where the combined volumes totaled 5 ml in each case in a 15 ml graduated Greiner centrifuge tube (Greiner Bio-one, North Carolina, USA). Immediately after addition of fresh blood, the tubes are inverted twice to mix and allowed to stand without further agitation. Clot formation is visibly apparent when the tubes are tilted slightly, and once a clot formed its integrity was such that it would remain suspended when the tubes were inverted. In each test a 5 ml sample of fresh whole blood (undiluted) is used as a control.
Rate of blood clotting was determined using freshly aspirated sheep blood and apparatus and procedures described in the Methods section. An activated blood clotting meter was used to measure anti-clotting effects and a visual tube comparison to evaluate reduced clotting times.
Blood clotting and/or anti-clotting effects were assessed using a 20% ratio of test item to fresh blood: in practice 4.0 ml of fresh sheep blood was added to tubes containing 1.0 ml of test item, inverted twice to mix and then either left standing for visual assessment of reduced clotting time or a single drop was applied to the cuvette of an activated blood clotting apparatus for assessment of anti-clotting effect (extended time to clot formation).

Staphylococcus aureus [4] = test: Ex-vivo wound model (beef brisket); conditions: FIG. 10, 100 minutes exposure, 7 logs inoculum
fresh sheep blood [5] = test: Activated blood clotting time (Hemochron meter)
[6] = system: Staphylococcus aureus, Streptococcus epidermidis, Escherichia coli and Candida albicans; test: Microbicidal effect of catheter locking solutions in whole blood, test inoculums overall; assay type: cell-based; conditions: 20%, one hour in whole blood
Staphylococcus aureus [7] = test: Microbicidal effect of catheter locking solutions in whole blood; assay type: cell-based; conditions: 20% by volume, 60 min
Candida albicans = test: as above; assay type: cell-based; conditions: 20% by volume, 60 min
Escherichia coli = test: as above; assay type: cell-based; conditions: 20% by volume, 60 min
[8] = system: Streptococcus epidermidis; test: as above; assay type: cell-based; conditions: 20% by volume, 60 min
[9] = 2.5 mg/ml, Table 5, de-lipidised
[10] = 5.0 mg/ml, Table 5, de-lipidised
[11] = 10 mg/ml, Table 5, de-lipidised
[12] = Table 21, 0.5% W/V fatty acid, free or emulsified in 0.4% W/V DLL
[13] = Table 22, low dose, listed as Free caprylic acid 0.05%
[14] = Table 22, low dose, listed as Free caprylic acid 0.1%
[15] = 2.5 mg/ml, Table 4, lipids as purchased
[16] = 5.0 mg/ml, Table 4, lipids as purchased
[17] = 10 mg/ml, Table 4, lipids as purchased

Molecule | % Adhesion ([1]; Table 21) [%] | % inhibition ([1]; Table 21) [%] | Test Count/100 BEC [1, 12] | viable count (log number) ([2]; 0 Seconds at 37° C.) [log] | viable count (log number) ([2]; 60 Seconds at 37° C.) [log] | viable count (log number) ([2]; 120 Seconds at 37° C.) [log] | viable count (log number) ([2]; 180 Seconds at 37° C.) [log] | viable count (log number) ([2]; 240 Seconds at 37° C.) [log] | viable count (log number) ([2]; 300 Seconds at 37° C.) [log] | viable count (log number) ([2]; 360 Seconds at 37° C.) [log] | also measured
CC(C)=CCC[C@@H](C)[C@H]1CC[C@@]2(C)C3=C(CC[C@]12C)[C@@]1(C)CC[C@H](O)C(C)(C)[C@@H]1CC3 [DL L] |  |  |  |  |  |  |  |  |  |  | % inhibition at 2.5 mg/ml ([1]; 2.5 mg/ml, Table 5): 54%; Candida albicans per 100 Buccal Epithelial Cell [1, 9]: 247; incremental increase in adhesion inhibitory effect achieved by de-lipidisation (in brackets) ([1]; 2.5 mg/ml): +13%; Candida albicans per 100 Buccal Epithelial Cell [1, 10]: 91; Candida albicans per 100 Buccal Epithelial Cell [1, 11]: 49
CCCCCCCCCC(=O)O [Free capric acid, capric acid] | 90 | 10 | 386 | 6.94 | 6.32 | 6.48 | 6.73 | 6.36 | 5.97 | 6.11 | 
CCCCCC(=O)O [Free caproic acid, caproic acid] | 89 | 11 | 380 | 7.87 | 7.17 | 6.82 | 7.57 | 6.93 | 6.47 | 6.73 | 
CCCCCCCC(=O)O [Free caprylic acid, caprylic acid] | 93 | 7 | 400 | 6.94 | 6.79 | 6.83 | 6.21 | 6.33 | 5.89 | 6.17 | % Adhesion [1, 13]: 94%; % inhibition [1, 13]: 6%; Test Count/100 BEC [1, 13]: 459; % Adhesion [1, 14]: 95%; % inhibition [1, 14]: 5%; Test Count/100 BEC [1, 14]: 466; factor of amplification of adhesion inhibitory effect in emulsified form ([1]; emulsified versus free): 14; clotting time (fresh sheep blood [3]): approximately 40 seconds
CCCCCCCCCCCC(=O)O [Free lauric acid, lauric acid] | 95 | 5 | 450 |  |  |  |  |  |  |  | 
CCCCCCCCCCCCCC(=O)O [Free myristic acid, myristic acid] | 92 | 8 | 436 | 7.38 | 7.27 | 7.84 | 6.93 | 7.11 | 6.26 | 6.84 | 
CCCCCCCCC(=O)O [Free pelargonic acid, pelargonic acid] | 84 | 16 | 360 | 6.94 | 6.55 | 6.31 | 5.96 | 5.67 | 5.83 | 5.27 | 
C=CCCCCCCCCC(=O)O [Free undecylenic acid, undecylenic acid] | 86 | 14 | 448 | 7.87 | 7.19 | 6.99 | 6.57 | 6.83 | 6.67 | 6.31 | 
CC(C)=CCC[C@@H](C)[C@H]1CC[C@@]2(C)C3=C(CC[C@]12C)[C@@]1(C)CC[C@H](O)C(C)(C)[C@@H]1CC3 [L, Lanosterol] |  |  |  |  |  |  |  |  |  |  | Candida albicans per 100 Buccal Epithelial Cell [1, 15]: 306; Candida albicans per 100 Buccal Epithelial Cell [1, 16]: 236; Candida albicans per 100 Buccal Epithelial Cell [1, 17]: 133; inhibition at 2500 µg/mL ([1]; Candida albicans, Epithelial cell, read-out: % inhibition at 2.5 mg/ml): 41%
[H]/N=C(\N/C(=N/[H])NCCCCCCNC(=N)NC(=N)Nc1ccc(Cl)cc1)Nc1ccc(Cl)cc1 [chlorhexidine, chlorhexidine gluconate] |  |  |  |  |  |  |  |  |  |  | logs remaining (Staphylococcus aureus [4]): 1 logs
Bovine Serum Albumin [BSA, reference compound] |  |  |  |  |  |  |  |  |  |  | % inhibition at 2.5 mg/ml ([1]; 2.5 mg/ml, Table 4): 19%; Candida albicans per 100 Buccal Epithelial Cell [1, 15]: 400; Candida albicans per 100 Buccal Epithelial Cell ([1]; 2.5 mg/ml, Table 6, water or 100 mM salt pH 4.5, with/without BSA, listed as BSA Sod′ Lactate): 408; Candida albicans per 100 Buccal Epithelial Cell ([1]; 2.5 mg/ml, Table 6, water or 100 mM salt pH 4.5, with/without BSA, listed as BSA Sod′ citrate): 393; Candida albicans per 100 Buccal Epithelial Cell ([1]; 2.5 mg/ml, Table 6, water or 100 mM salt pH 4.5, with/without BSA, listed as BSA: water): 438; Candida albicans per 100 Buccal Epithelial Cell [1, 16]: 379; % inhibition at 5 mg/ml ([1]; Table 6, listed as BSA Sod′ Lactate): 21%; Candida albicans per 100 Buccal Epithelial Cell ([1]; 5.0 mg/ml, Table 6, listed as BSA Sod′ Lactate): 372; % inhibition at 5 mg/ml ([1]; Table 6, listed as BSA Sod′ citrate): 22%; Candida albicans per 100 Buccal Epithelial Cell ([1]; 5.0 mg/ml, Table 6, listed as BSA Sod′ citrate): 369; % inhibition at 5 mg/ml ([1]; Table 6, listed as BSA: water): 12%; Candida albicans per 100 Buccal Epithelial Cell ([1]; 5.0 mg/ml, Table 6, listed as BSA: water): 400; Candida albicans per 100 Buccal Epithelial Cell [1, 17]: 303; Candida albicans per 100 Buccal Epithelial Cell ([1]; 10 mg/ml, Table 6): 362; % Adhesion ([1]; Table 16): 83%; % inhibition ([1]; Table 16): 17%; Count/100 BEC ([1]; Table 16, 100 mM sodium citrate pH 4.5, 0.5% Methocel, lipids 0.1%): 425
DL BSA: Bovine Serum Albumin treated by the de-lipidisation procedure [reference compound] |  |  |  |  |  |  |  |  |  |  | % inhibition at 2.5 mg/ml ([1]; 2.5 mg/ml, Table 5): 16%; Candida albicans per 100 Buccal Epithelial Cell [1, 9]: 431; incremental increase in adhesion inhibitory effect achieved by de-lipidisation (in brackets) ([1]; 2.5 mg/ml): −3%; Candida albicans per 100 Buccal Epithelial Cell [1, 10]: 393; Candida albicans per 100 Buccal Epithelial Cell [1, 11]: 329
Heparin |  |  |  |  |  |  |  |  |  |  | Activated Blood Clotting Time (fresh sheep blood [5]; 5% incorporation in whole blood): 284 s; Activated Blood Clotting Time (fresh sheep blood [5]; 10% incorporation in whole blood): 423 s; Activated Blood Clotting Time (fresh sheep blood [5]; 15% incorporation in whole blood): 601 s; Activated Blood Clotting Time (fresh sheep blood [5]; 20% incorporation in whole blood): 1023 s; microbicidal effect in words [6]: no microbial inhibition; viable count in whole blood (log number) (Staphylococcus aureus [7]): 8.39 log; viable count in whole blood (log number) (Candida albicans): 6.94 log; viable count in whole blood (log number) (Escherichia coli): 7.92 log; viable count in whole blood (log number) [8]: 8.22 log
